In brackets after ≈: the same amount, converted by molar mass. Like-named read-outs stand apart in the source and are kept apart here. Where no end group is shown, it is not given here.
Key:
Type in all cases: cell-based, Staphylococcus aureus
[1] = test system: S. aureus 5812R; test: microbe, parasite or virus in culture; conditions: 24 h; for MIC: Staphylococcus aureus, 5812R, read-out: MIC alone
Procedure: The effect of gausemycin A in combination with other antibiotics was evaluated using the checkerboard technique with modifications (Nwabor et al., [2021]). Briefly, 80 μL of diluted bacterial suspension (10^6 CFU/mL) was added to wells containing 10 μL of sub-inhibitory concentrations of gausemycin A and 10 μL of sub-inhibitory concentrations of conventional antibiotics. The plates were incubated for 24 h at 37°C. The effects of the antimicrobial combination were defined according to the fractional inhibitory concentration index (FICI). The ΣFICs were calculated as follows:
where FIC A is the MIC of drug A in the combination/MIC of drug A alone; and FIC B is the MIC of drug B in the combination/MIC of drug B alone. The result was interpreted as FIC ≤ 0.5 = Synergism, FIC > 0.5 to 1 = additivity, FIC >1 to 2 = indifference, and FIC >2 antagonism.

[2] = test system: S. aureus FDA209P; test: microbe, parasite or virus in culture; conditions: broth microdilution (CLSI), 10^6 CFU/ml, 24 h, 37 °C, absorbance at 600 nm
Procedure: (§1) Minimal inhibitory concentration (MIC) was determined as previously described in Fuchs et al. ([2000]), following the Clinical and Laboratory Standards Institute (CLSI) guidelines for broth microdilution MIC assay. The bacteria were incubated in a 96-well microtiter plate (Eppendorf, Germany) containing 90 μL of inoculum prepared in growth media at 10^6 CFU/ml with 10 μL of twofold dilutions of the antibiotics. The results were evaluated after 24 h of cultivation at 37 °C. The bacterial growth was assessed by scanning the absorbance data at 600 nm obtained by spectrophotometer (Multiscan GO, Thermo Fisher Scientific, US).

[3] = test system: S. aureus 5812R; test: microbe, parasite or virus in culture; conditions: for MIC: 24 h; for Cross-resistance of S. aureus 5812R: susceptibility testing of gausemycin A-resistant strain; for Change of MIC / resistance of S. aureus 5812R compared to parent strain S. aureus FDA209P: ratio of MIC for 5812R and FDA209P
Procedure: as §1

[4] = test system: S. aureus FDA209P; test: Serial passaging in increasing concentrations of antimicrobials; conditions: for The highest concentration of antibiotic allowing growth: Mueller-Hinton II broth (CaCl2 50 mg/L), 37 °C, 24 h
Procedure: Gausemycin A-resistant variant was obtained by serial passaging as described previously (Pollard et al., [2012]). Isolated colonies of S. aureus FDA209P were inoculated into Mueller-Hinton II broth (CaCl2 50 mg/L) containing twofold dilutions of gausemycin A. The cultures were incubated at 37 °C with aeration for 24 h. After incubation, bacterial cells growing at the highest concentration of gausemycin A (below the MIC) were harvested and used for the next passage. The process was repeated for 20 passages. The dynamic of the developing resistance to gausemycin A was evaluated in comparison with daptomycin and ramoplanin. The experiments were performed in two independent series on separate days with three technical replicates each.

[5] = Staphylococcus aureus, read-out: MIC
[6] = S. aureus 5812R, broth microdilution (CLSI), 10^6 CFU/ml, 37 °C, absorbance at 600 nm

Molecule: CC1(C)S[C@@H]2[C@H](NC(=O)[C@H](N)c3ccccc3)C(=O)N2[C@H]1C(=O)O [Ampicillin]
- MIC of Amp in combination ([1]; S. aureus 5812R, combination Amp + GauA, checkerboard, 37 °C): 0.63 µg/mL
- MIC [1]: 1.25 µg/mL
- MIC [2, 5]: 0.16 µg/mL (≈ 0.458 µM)
- MIC ([3]; Staphylococcus aureus, 5812R): 1.25 µg/mL (≈ 3.58 µM)

Molecule: Cc1nnc(SCC2=C(C(=O)O)N3C(=O)[C@@H](NC(=O)Cn4cnnn4)[C@H]3SC2)s1 [Cefazolin]
- MIC [2, 5]: 0.2 µg/mL (≈ 0.44 µM)
- MIC ([3]; Staphylococcus aureus, 5812R): 0.4 µg/mL (≈ 0.88 µM)
- Cross-resistance of S. aureus 5812R [3]: cross-resistance

Molecule: O=C(O)c1cn(C2CC2)c2cc(N3CCNCC3)c(F)cc2c1=O [Ciprofloxacin]
- MIC of Cip in combination ([1]; S. aureus 5812R, combination Cip+ GauA, checkerboard, 37 °C): 0.18 µg/mL

Molecule: CNC(C)C1CCC(N)C(OC2C(N)CC(N)C(OC3OCC(C)(O)C(NC)C3O)C2O)O1 (centres unmarked) [Gentamicin]
- MIC of Gen in combination ([1]; S. aureus 5812R, combination Gen+ GauA, checkerboard, 37 °C): 0.75 µg/mL
- MIC [1]: 1.56 µg/mL
- MIC [2, 5]: 0.2 µg/mL (≈ 0.419 µM)
- MIC ([3]; Staphylococcus aureus, 5812R): 1.56 µg/mL (≈ 3.27 µM)
- Change of MIC / resistance of S. aureus 5812R compared to parent strain S. aureus FDA209P [3]: 7.8 fold
- Cross-resistance of S. aureus 5812R [3]: cross-resistance

Molecule: CN(C)[C@@H]1C(O)=C(C(N)=O)C(=O)[C@@]2(O)C(O)=C3C(=O)c4c(O)cccc4[C@@](C)(O)[C@H]3C[C@@H]12 [Tetracycline]
- MIC [2, 5]: 0.47 µg/mL (≈ 1.06 µM)
- MIC ([3]; Staphylococcus aureus, 5812R): 0.94 µg/mL (≈ 2.12 µM)
- Cross-resistance of S. aureus 5812R [3]: cross-resistance

Molecule: CN[C@H](CC(C)C)C(=O)N[C@H]1C(=O)N[C@@H](CC(N)=O)C(=O)N[C@H]2C(=O)N[C@H]3C(=O)N[C@H](C(=O)N[C@H](C(=O)O)c4cc(O)cc(O)c4-c4cc3ccc4O)[C@H](O)c3ccc(c(Cl)c3)Oc3cc2cc(c3O[C@@H]2O[C@H](CO)[C@@H](O)[C@H](O)[C@H]2O[C@H]2C[C@](C)(N)[C@H](O)[C@H](C)O2)Oc2ccc(cc2Cl)[C@H]1O [Vancomycin]
- MIC [2]: 0.78 µg/mL (≈ 0.538 µM)
- MIC [3, 6]: 0.78 µg/mL (≈ 0.538 µM)
- Change of MIC / resistance of S. aureus 5812R compared to parent strain S. aureus FDA209P [3]: did not differ
- Cross-resistance of S. aureus 5812R [3]: absent

Molecule: Nisin (ITSISLCTPGCKTGALMGCNMKTATCHCSIHVSK; not fully specified (some residues, bridges); cysteine pairing not given here; UniProt P13068 24-57, looked up)
- MIC [2]: 7.8 µg/mL
- MIC [3, 6]: 7.8 µg/mL
- Change of MIC / resistance of S. aureus 5812R compared to parent strain S. aureus FDA209P [3]: did not differ
- Cross-resistance of S. aureus 5812R [3]: absent

Molecule: Ramoplanin
- The highest concentration of antibiotic allowing growth ([4]; passage 1): 3.12 µg/mL
- The highest concentration of antibiotic allowing growth ([4]; passage 2): 6.25 µg/mL
- The highest concentration of antibiotic allowing growth ([4]; passage 3): 6.25 µg/mL
- The highest concentration of antibiotic allowing growth ([4]; passage 4): 12.5 µg/mL
- The highest concentration of antibiotic allowing growth ([4]; passage 5): 50 µg/mL
- The highest concentration of antibiotic allowing growth ([4]; passage 6): 50 µg/mL
- The highest concentration of antibiotic allowing growth ([4]; passage 7): 50 µg/mL
- The highest concentration of antibiotic allowing growth ([4]; passage 8): 100 µg/mL
- The highest concentration of antibiotic allowing growth ([4]; passage 9): 100 µg/mL
- The highest concentration of antibiotic allowing growth ([4]; passage 10): 100 µg/mL
- The highest concentration of antibiotic allowing growth ([4]; passage 11): >100 µg/mL
- The highest concentration of antibiotic allowing growth ([4]; passage 12): >100 µg/mL
- The highest concentration of antibiotic allowing growth ([4]; passage 13): >100 µg/mL
- The highest concentration of antibiotic allowing growth ([4]; passage 14): >100 µg/mL
- The highest concentration of antibiotic allowing growth ([4]; passage 15): >100 µg/mL
- The highest concentration of antibiotic allowing growth ([4]; passage 16): >100 µg/mL
- The highest concentration of antibiotic allowing growth ([4]; passage 17): >100 µg/mL
- The highest concentration of antibiotic allowing growth ([4]; passage 18): >100 µg/mL
- The highest concentration of antibiotic allowing growth ([4]; passage 19): >100 µg/mL
- The highest concentration of antibiotic allowing growth ([4]; passage 20): >100 µg/mL
- Number of passages within which resistance was formed ([4]; serial passages with sub-inhibitory concentrations): ≤ 10 passages
- MIC [2]: 3.12 µg/mL
- MIC [3, 6]: 3.12 µg/mL
- Change of MIC / resistance of S. aureus 5812R compared to parent strain S. aureus FDA209P [3]: did not differ
- Cross-resistance of S. aureus 5812R [3]: absent

Reference: article PMC9558223, “Staphylococcus aureus is able to generate resistance to novel lipoglycopeptide antibiotic gausemycin A” (Frontiers in Microbiology, 2022)
